{"source": "patent US9029391B2", "about": "(priority 2011, dated 2015)", "note": "Counter-ions that a name gives are not always drawn."}
{"tested_on": "HIV", "assay": "MT4 Assay (anti-HIV activity)", "type": "cell-based", "conditions": "Human immunodeficiency virus 1, 96 h, read-out: HIV MT4 Assay IC50, HTLV-1 transformed cell line MT-4, cell titer glo, 10 point dose response curve", "procedure": "Antiviral HIV activity and cytotoxicity values for compounds of the invention from Table 1 were measured in parallel in the HTLV-1 transformed cell line MT-4 based on the method previously described (Hazen et al., 2007, In vitro antiviral activity of the novel, tyrosyl-based human immunodeficiency virus (HIV) type 1 protease inhibitor brecanavir (GW640385) in combination with other antiretrovirals and against a panel of protease inhibitor-resistant HIV (Hazen et al., “In vitro antiviral activity of the novel, tyrosyl-based human immunodeficiency virus (HIV) type 1 protease inhibitor brecanavir (GW640385) in combination with other antiretrovirals and against a panel of protease inhibitor-resistant HIV”, Antimicrob. Agents Chemother. 2007, 51: 3147-3154; and Pauwels et al., “Sensitive and rapid assay on MT-4 cells for the detection of antiviral compounds against the AIDS virus”, J. of Virological Methods 1987, 16: 171-185).\nLuciferase activity was measured 96 hours later by adding a cell titer glo (Promega, Madison, Wis.). Percent inhibition of cell protection data was plotted relative to no compound control. Under the same condition, cytotoxicity of the compounds was determined using cell titer glo (Promega, Madison, Wis.). IC50s were determined from a 10 point dose response curve using 3-4-fold serial dilution for each compound, which spans a concentration range >1000 fold.", "units": {"IC50": "nM"}}
{"smiles": "Cc1c(-c2c([C@H](OC(C)(C)C)C(=O)O)n(C)c(=O)c3cc(CC(C)C)ccc23)cc(F)c2c1CCCO2", "note": "(atropisomer, axis not shown; (M)) [Example 174, (2S)(M)-[(1,1-dimethylethyl)oxy][4-(8-fluoro-5-methyl-3,4-dihydro-2H-chromen-6-yl)-2-methyl-7-(2-methylpropyl)-1-oxo-1,2-dihydro-3-isoquinolinyl]ethanoic acid]", "IC50": 50}
{"smiles": "Cc1c(-c2c([C@H](OC(C)(C)C)C(=O)O)n(C)c(=O)c3cc(Cc4ccccc4)ccc23)cc(F)c2c1CCCO2", "note": "(atropisomer, axis not shown; (M)) [Example 175, (2S)(M)-[(1,1-dimethylethyl)oxy][4-(8-fluoro-5-methyl-3,4-dihydro-2H-chromen-6-yl)-2-methyl-1-oxo-7-(phenylmethyl)-1,2-dihydro-3-isoquinolinyl]ethanoic acid]", "IC50": 70}
{"smiles": "Cc1c(-c2c([C@H](OC(C)(C)C)C(=O)O)n(C)c(=O)c3cc(CCc4ccccc4)ccc23)cc(F)c2c1CCCO2", "note": "(atropisomer, axis not shown; (M)) [Example 176, (2S)(M)-[(1,1-dimethylethyl)oxy][4-(8-fluoro-5-methyl-3,4-dihydro-2H-chromen-6-yl)-2-methyl-1-oxo-7-(2-phenylethyl)-1,2-dihydro-3-isoquinolinyl]ethanoic acid]", "IC50": 50}
{"smiles": "Cc1c(-c2c([C@H](OC(C)(C)C)C(=O)O)n(C)c(=O)c3cc(CN4CCOCC4)ccc23)cc(F)c2c1CCCO2", "note": "(atropisomer, axis not shown; (M)) [Example 189, (S)(M)-2-(tert-butoxy)-2-(4-(8-fluoro-5-methylchroman-6-yl)-2-methyl-7-(morpholinomethyl)-1-oxo-1,2-dihydroisoquinolin-3-yl)acetic acid]", "IC50": 40}
{"smiles": "Cc1c(-c2c([C@H](OC(C)(C)C)C(=O)O)n(C)c(=O)c3cc(CN4CCCCC4)ccc23)cc(F)c2c1CCCO2", "note": "(atropisomer, axis not shown; (M)) [Example 190, (S)(M)-2-(tert-butoxy)-2-(4-(8-fluoro-5-methylchroman-6-yl)-2-methyl-1-oxo-7-(piperidin-1-ylmethyl)-1,2-dihydroisoquinolin-3-yl)acetic acid, Trifluoroacetic acid salt]", "IC50": 320}
{"smiles": "Cc1c(-c2c([C@H](OC(C)(C)C)C(=O)O)n(C)c(=O)c3cc(-c4ccoc4)ccc23)cc(F)c2c1CCCO2", "note": "(atropisomer, axis not shown; (M)) [Example 194, (2S)(M)-[(1,1-dimethylethyl)oxy][4-(8-fluoro-5-methyl-3,4-dihydro-2H-chromen-6-yl)-7-(3-furanyl)-2-methyl-1-oxo-1,2-dihydro-3-isoquinolinyl]ethanoic acid]", "IC50": 40}
{"smiles": "Cc1c(-c2c([C@H](OC(C)(C)C)C(=O)O)n(C)c(=O)c3cc(-c4ccnn4C)ccc23)cc(F)c2c1CCCO2", "note": "(atropisomer, axis not shown; (M)) [Example 195, (2S)(M)-[(1,1-dimethylethyl)oxy][4-(8-fluoro-5-methyl-3,4-dihydro-2H-chromen-6-yl)-2-methyl-7-(1-methyl-1H-pyrazol-5-yl)-1-oxo-1,2-dihydro-3-isoquinolinyl]ethanoic acid]", "IC50": 140}
{"smiles": "Cc1n[nH]c(C)c1-c1ccc2c(-c3cc(F)c4c(c3C)CCCO4)c([C@H](OC(C)(C)C)C(=O)O)n(C)c(=O)c2c1", "note": "(atropisomer, axis not shown; (M)) [Example 196, (2S)(M)-[(1,1-dimethylethyl)oxy][7-(3,5-dimethyl-1H-pyrazol-4-yl)-4-(8-fluoro-5-methyl-3,4-dihydro-2H-chromen-6-yl)-2-methyl-1-oxo-1,2-dihydro-3-isoquinolinyl]ethanoic acid]", "IC50": 1160}
{"smiles": "Cc1c(-c2c([C@H](OC(C)(C)C)C(=O)O)n(C)c(=O)c3cc(-c4cn[nH]c4)ccc23)cc(F)c2c1CCCO2", "note": "(atropisomer, axis not shown; (M)) [Example 197, (2S)(M)-[(1,1-dimethylethyl)oxy][4-(8-fluoro-5-methyl-3,4-dihydro-2H-chromen-6-yl)-2-methyl-1-oxo-7-(1H-pyrazol-4-yl)-1,2-dihydro-3-isoquinolinyl]ethanoic acid]", "IC50": 1460}
{"smiles": "COc1ccc(-c2ccc3c(-c4cc(F)c5c(c4C)CCCO5)c([C@H](OC(C)(C)C)C(=O)O)n(C)c(=O)c3c2)cn1", "note": "(atropisomer, axis not shown; (M)) [Example 198, (2S)(M)-[(1,1-dimethylethyl)oxy]{4-(8-fluoro-5-methyl-3,4-dihydro-2H-chromen-6-yl)-2-methyl-7-[6-(methyloxy)-3-pyridinyl]-1-oxo-1,2-dihydro-3-isoquinolinyl}ethanoic acid]", "IC50": 40}
{"smiles": "Cc1c(-c2c([C@H](OC(C)(C)C)C(=O)O)n(C)c(=O)c3cc(-c4ccc(N(C)C)cc4)ccc23)cc(F)c2c1CCCO2", "note": "(atropisomer, axis not shown; (M)) [Example 199, (2S)(M)-[7-[4-(dimethylamino)phenyl]-4-(8-fluoro-5-methyl-3,4-dihydro-2H-chromen-6-yl)-2-methyl-1-oxo-1,2-dihydro-3-isoquinolinyl][(1,1-dimethylethyl)oxy]ethanoic acid]", "IC50": 90}
{"smiles": "Cc1c(-c2c([C@H](OC(C)(C)C)C(=O)O)n(C)c(=O)c3cc(-c4cnn(C)c4)ccc23)cc(F)c2c1CCCO2", "note": "(atropisomer, axis not shown; (M)) [Example 200, (2S)(M)-[(1,1-dimethylethyl)oxy][4-(8-fluoro-5-methyl-3,4-dihydro-2H-chromen-6-yl)-2-methyl-7-(1-methyl-1H-pyrazol-4-yl)-1-oxo-1,2-dihydro-3-isoquinolinyl]ethanoic acid]", "IC50": 110}
{"smiles": "Cc1c(-c2c([C@H](OC(C)(C)C)C(=O)O)n(C)c(=O)c3cc(-c4cnn(CCC(C)C)c4)ccc23)cc(F)c2c1CCCO2", "note": "(atropisomer, axis not shown; (M)) [Example 201, (2S)(M)-[(1,1-dimethylethyl)oxy]{4-(8-fluoro-5-methyl-3,4-dihydro-2H-chromen-6-yl)-2-methyl-7-[1-(3-methylbutyl)-1H-pyrazol-4-yl]-1-oxo-1,2-dihydro-3-isoquinolinyl}ethanoic acid]", "IC50": 40}
{"smiles": "Cc1c(-c2c([C@H](OC(C)(C)C)C(=O)O)n(C)c(=O)c3cc(-c4cccn4C)ccc23)cc(F)c2c1CCCO2", "note": "(atropisomer, axis not shown; (M)) [Example 202, (S)(M)-[(1,1-dimethylethyl)oxy][4-(8-fluoro-5-methyl-3,4-dihydro-2H-chromen-6-yl)-2-methyl-7-(1-methyl-1H-pyrrol-2-yl)-1-oxo-1,2-dihydro-3-isoquinolinyl]ethanoic acid]", "IC50": 20}
{"smiles": "Cc1occc1-c1ccc2c(-c3cc(F)c4c(c3C)CCCO4)c([C@H](OC(C)(C)C)C(=O)O)n(C)c(=O)c2c1", "note": "(atropisomer, axis not shown; (M)) [Example 203, (2S)(M)-[(1,1-dimethylethyl)oxy][4-(8-fluoro-5-methyl-3,4-dihydro-2H-chromen-6-yl)-2-methyl-7-(2-methyl-3-furanyl)-1-oxo-1,2-dihydro-3-isoquinolinyl]ethanoic acid]", "IC50": 30}
{"smiles": "Cc1c(-c2c([C@H](OC(C)(C)C)C(=O)O)n(C)c(=O)c3cc(-c4ccccc4)ccc23)cc(F)c2c1CCCO2", "note": "(atropisomer, axis not shown; (M)) [Example 204, (2S)(M)-[(1,1-dimethylethyl)oxy][4-(8-fluoro-5-methyl-3,4-dihydro-2H-chromen-6-yl)-2-methyl-1-oxo-7-phenyl-1,2-dihydro-3-isoquinolinyl]ethanoic acid]", "IC50": 30}
{"smiles": "Cc1c(-c2c([C@H](OC(C)(C)C)C(=O)O)n(C)c(=O)c3cc(-c4ccncc4)ccc23)cc(F)c2c1CCCO2", "note": "(atropisomer, axis not shown; (M)) [Example 205, (2S)(M)-[(1,1-dimethylethyl)oxy][4-(8-fluoro-5-methyl-3,4-dihydro-2H-chromen-6-yl)-2-methyl-1-oxo-7-(4-pyridinyl)-1,2-dihydro-3-isoquinolinyl]ethanoic acid]", "IC50": 160}
{"smiles": "Cc1c(-c2c([C@H](OC(C)(C)C)C(=O)O)n(C)c(=O)c3cc(-c4cccnc4)ccc23)cc(F)c2c1CCCO2", "note": "(atropisomer, axis not shown; (M)) [Example 206, (2S)(M)-[(1,1-dimethylethyl)oxy][4-(8-fluoro-5-methyl-3,4-dihydro-2H-chromen-6-yl)-2-methyl-1-oxo-7-(3-pyridinyl)-1,2-dihydro-3-isoquinolinyl]ethanoic acid]", "IC50": 160}
{"smiles": "Cc1noc(C)c1-c1ccc2c(-c3cc(F)c4c(c3C)CCCO4)c([C@H](OC(C)(C)C)C(=O)O)n(C)c(=O)c2c1", "note": "(atropisomer, axis not shown; (M)) [Example 207, (2S)(M)-[(1,1-dimethylethyl)oxy][7-(3,5-dimethyl-4-isoxazolyl)-4-(8-fluoro-5-methyl-3,4-dihydro-2H-chromen-6-yl)-2-methyl-1-oxo-1,2-dihydro-3-isoquinolinyl]ethanoic acid]", "IC50": 80}
{"smiles": "COc1cccc(-c2ccc3c(-c4cc(F)c5c(c4C)CCCO5)c([C@H](OC(C)(C)C)C(=O)O)n(C)c(=O)c3c2)n1", "note": "(atropisomer, axis not shown; (M)) [Example 208, (2S)(M)-[(1,1-dimethylethyl)oxy]{4-(8-fluoro-5-methyl-3,4-dihydro-2H-chromen-6-yl)-2-methyl-7-[6-(methyloxy)-2-pyridinyl]-1-oxo-1,2-dihydro-3-isoquinolinyl}ethanoic acid]", "IC50": 40}
